Results: PMC3937211, “Serine Carboxypeptidase SCPEP1 and Cathepsin A Play Complementary Roles in Regulation of Vasoconstriction via Inactivation of Endothelin-1” (PLoS Genetics, 2014)

Tested on: homogenates of cultured AVSMC
Test: Carboxypeptidase activity against ET-1 in homogenates of cultured AVSMC
Format: biochemical, mouse
Conditions: 50 µM ET-1
Description: Figure 1 Scpep1 has carboxypeptidase activity against ET-1. A. Carboxypeptidase activity against ET-1 in homogenates of cultured AVSMC from WT, Scpep1 ^−/−, CathA^S190A and Scpep1 ^−/− /CathA^S190A mice as well as from the cells of Scpep1 ^−/− /CathA^S190A mice transiently transfected with pCMV-GFP and pCMV-Scpep1 plasmids. AVSMC after the passage 3 were transfected or not with Scpep1-RGS-His-Tag and pEGFP-C1 plasmids. Forty-eight hours after transfection confluent cells were harvested, homogenized and tested for carboxypeptidase activity using 50 µM ET-1 as a substrate. Data are expressed as means (±S.D.) of 3 independent experiments performed with different cell cultures. * p<0.05 and ** p<0.01 in two-tailed unpaired t-test. B. Carboxypeptidase activity against ET-1 in homogenates of cultured AVSMC from WT mice transfected with Scpep1 and CathA shRNA. AVSMC after the passage 3 were transfected with pRFP-C-RS vectors expressing shRNA for mouse CathA and Scpep1 or non-effective 29-mer scrambled shRNA as indicated. Seventy-two hours after transfection the cells were harvested, and those expressing plasmids enriched by cell-sorting, homogenized and tested for carboxypeptidase activity using 50 µM ET-1 as a substrate. […] C. Carboxypeptidase activity against ET-1 of purified recombinant Scpep1. Scpep1 carrying a His6 tag at the C-terminus was expressed in stably transfected HT1080 cells and purified by affinity chromatography on Ni-NTA resin followed by anion-exchange chromatography as described. Carboxypeptidase activity was assayed with 50 µM ET-1 as a substrate and 0.4–0.8 µg of the purified enzyme in the reaction mixture in 50 mM sodium phosphate/50 mM sodium acetate buffer at pH 5.5, 6.5 and 7.5. Bars show mean values (±S.D.) of 3 independent experiments. […] The amino acid analysis of the reaction mixture determined that Scpep1 cleaves the C-terminal amino acid (Trp21) from ET-1 (not shown). […]
Carboxypeptidase activity in cultured AVSMC was measured against 50 µM ET-1 as previously described using the method measuring the liberation rate of the C-terminal amino acid of the peptide. […]

carboxypeptidase activity against ET-1 (AVSMC of CathA^S190A mice, sodium acetate buffer pH 5.4, 30–180 min at 37°C, 3 independent experiments): ~10%
carboxypeptidase activity against ET-1 (CathA^S190A/Scpep1^−/− mice, pH 5.4, 37°C): ~6%
carboxypeptidase activity against ET-1 (Scpep1^−/− mice, relative to WT, pH 5.4, 37°C): ~70%
Substance: endothelin-1 [ET-1]
